Assay results published in PubChem BioAssay AID2060326 (Molecular Pharmacology Branch, DTP, NCI, 2025).

Tested on: MDA-MB-468 multi-cell spheroids, viability
Test: Anticancer human tumor MDA-MB-468 cell line growth inhibition [IpAb];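 note: spheroids exposed to agents for seven days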;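 for viability, T/C: 100% = DMSO vehicle control viability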
Settings: for viability, T/C: stronger effect = lower value
Excerpt: Combinatorial screen of targeted agents with ipatasertib and abemaciclib in multi-cell type tumor spheroids
A high-throughput screen of multi-cell type tumor spheroids was designed to identify active combinations of targeted small molecules and ipatasertib or abemaciclib. Complex spheroids include a stromal component modeled by human endothelial cells (HUVEC) and fibroblasts modeled by human mesenchymal stem cells (MSCs). The concentration ranges selected for each drug and investigational agent were based upon clinically achievable concentrations if the clinical Cmax of the agent was known.
Compounds. The drugs and investigational agents: ipatasertib (NSC767898), abemaciclib(NSC768073), selumetinib (NSC741078), trametinib (758246), adavosertib (NSC754352), everolimus (NSC733504), sapanisertib (NSC764658), vemurafenib (NSC761431), venetoclax (NSC766270), copanlisib (NSC809693), apelisib (NSC765974), palbociblib (NSC758247), vemurafenib (NSC761431), dabrafenib (NSC764134), ravoxertinib (NSC781343), BMS-387032 (NSC767048), sotorasib (NSC818433), talazoparib (NSC767125) and afursertib (NSC778305), were obtained from the National Cancer Institute (NCI) Developmental Therapeutics Program Chemical Repository. The FDA-approved anticancer drug set is available from the NCI Developmental Therapeutics Program. […] The stock solutions were prepared in dimethyl sulfoxide (DMSO, Sigma-Aldrich, St. Louis, MO, cat. D2650) at 800-fold the tested concentration and stored at -70 degrees C prior to their use. All drugs and investigational agents were tested over a range starting from a high concentration at or near the clinical Cmax and decreasing in half-log increments. If the clinical Cmax for an agent had not been determined, the highest concentration tested was 10 microM.
NCI60 Cell Culture. NCI60 cell lines were obtained from the NCI Developmental Therapeutics Program Tumor Repository. For each lot of cells, the Repository performed Applied Biosystems AmpFLSTR Identifiler testing with PCR amplification to confirm consistency with the published Identifier STR profile for each cell line. Cells were kept in continuous culture for no more than 20 passages. The optimal seeding densities for each of the cell lines at each time point assessed were determined prior to performing the concentration response studies. Briefly, the NCI60 human tumor lines were grown as monolayers in RPMI 1640 medium supplemented with 10% FBS and 2 mmol/L L-glutamine.
An additional 9 lines were from the NCI60 cell line panel including MDA-MB-231 breast carcinoma, MDA-MB-468 breast carcinoma, MCF7 breast carcinoma, Hs578T breast carcinoma, MALME-3M melanoma, SK-MEL-2 melanoma, SK-OV-3 ovarian carcinoma, DU-145 prostate carcinoma, PC-3 prostate carcinoma, all cell lines along with major genetic alterations are listed on Table 2. Pooled donor human umbilical vein endothelial cells (HUVEC, Lonza, cat. CC-2519) and human mesenchymal stem cells (hMSC, Lonza, cat. PT-2501) were purchased from Lonza (Walkersville, MD).
PDMR cell lines were grown in complete medium (DC medium): Dulbecco's modified Eagle's medium (DMEM)/F12 supplemented with 5% fetal bovine serum (FBS), 2 mM L-glutamine, 100 U/mL penicillin and 100 µg/ml streptomycin, 0.4 µg/ml hydrocortisone, 10 ng/ml epidermal growth factor (EGF) recombinant human protein, 24 µg/mL adenine, and 0.1 mg/mL primocin. During culture from frozen stock vials, PDMR cells were cultured in the same medium containing 10 µM Y-27632 (see Table 3). The PDCs were cultured in complete DMEM/F12 media without 10 microM Y-27632 dihydrochloride for at least two passages prior to the screen. The pooled donor HUVEC and hMSC were cultured in endothelial cell growth medium 2 (PromoCell, Heidelberg, Germany, cat. C-22011) and mesenchymal stem cell growth medium 2 (PromoCell, cat. C-28009), respectively. For all experiments, HUVEC and hMSC were used at passages </=5.
[…]

[1] = curve of first compound, second compound 0.1 µM
[2] = curve of first compound, second compound 0.316 µM
[3] = curve of first compound, second compound 1 µM

Cn1ncnc1[C@H]1c2n[nH]c(=O)c3cc(F)cc(c23)N[C@@H]1c1ccc(F)cc1 + CCN1CCN(Cc2ccc(Nc3ncc(F)c(-c4cc(F)c5nc(C)n(C(C)C)c5c4)n3)nc2)CC1 gave an IC50 (curve of first compound, second compound 0.01 µM) greater than 100 nM, an IC50 (curve of first compound, second compound 0.0316 µM) greater than 100 nM and an IC50 [1] greater than 100 nM. The IC50 [2] was greater than 100 nM, the IC50 [3] was greater than 100 nM and the viability, T/C (second compound 0.01 µM, first compound 0.000316 µM) was 89%. For the same compound, the viability, T/C (second compound 0.01 µM, first compound 0.001 µM) was 91.1%, the viability, T/C (second compound 0.01 µM, first compound 0.00316 µM) was 89.2% and the viability, T/C (second compound 0.01 µM, first compound 0.01 µM) was 82.8%. It also gave a viability, T/C (second compound 0.01 µM, first compound 0.0316 µM) of 89.6%, a viability, T/C (second compound 0.01 µM, first compound 0.1 µM) of 63.1% and a viability, T/C (second compound 0.0316 µM, first compound 0.000316 µM) of 89.1%. For the same compound, the viability, T/C (second compound 0.0316 µM, first compound 0.001 µM) was 82.4%, the viability, T/C (second compound 0.0316 µM, first compound 0.00316 µM) was 92% and the viability, T/C (second compound 0.0316 µM, first compound 0.01 µM) was 73.2%. The viability, T/C (second compound 0.0316 µM, first compound 0.0316 µM) was 91.6%, the viability, T/C (second compound 0.0316 µM, first compound 0.1 µM) was 54% and the viability, T/C (second compound 0.1 µM, first compound 0.000316 µM) was 92%. For the same compound, the viability, T/C (second compound 0.1 µM, first compound 0.001 µM) was 103%, the viability, T/C (second compound 0.1 µM, first compound 0.00316 µM) was 94.9% and the viability, T/C (second compound 0.1 µM, first compound 0.01 µM) was 97.5%. For the same compound, the viability, T/C (second compound 0.1 µM, first compound 0.0316 µM) was 78.5%, the viability, T/C (second compound 0.1 µM, first compound 0.1 µM) was 63.7% and the viability, T/C (second compound 0.316 µM, first compound 0.000316 µM) was 92.8%. It also gave a viability, T/C (second compound 0.316 µM, first compound 0.001 µM) of 85%, a viability, T/C (second compound 0.316 µM, first compound 0.00316 µM) of 86.6% and a viability, T/C (second compound 0.316 µM, first compound 0.01 µM) of 90.2%. For the same compound, the viability, T/C (second compound 0.316 µM, first compound 0.0316 µM) was 78.2%, the viability, T/C (second compound 0.316 µM, first compound 0.1 µM) was 70.1% and the viability, T/C (second compound 1 µM, first compound 0.000316 µM) was 86.7%. It also gave a viability, T/C (second compound 1 µM, first compound 0.001 µM) of 83.5%, a viability, T/C (second compound 1 µM, first compound 0.00316 µM) of 82.3% and a viability, T/C (second compound 1 µM, first compound 0.01 µM) of 68.2%. It also gave a viability, T/C (second compound 1 µM, first compound 0.0316 µM) of 66.6% and a viability, T/C (second compound 1 µM, first compound 0.1 µM) of 68.9%.

CCN1CCN(Cc2ccc(Nc3ncc(F)c(-c4cc(F)c5nc(C)n(C(C)C)c5c4)n3)nc2)CC1 was tested, and the viability, T/C (compound 0.1 µM) was 102% [middle of 13 runs] and the IC50 (compound alone, run of 05/18/2021) was greater than 1000 nM.

With CC(=O)c1c(C)c2cnc(Nc3ccc(N4CCNCC4)cn3)nc2n(C2CCCC2)c1=O + CC(C)NCC(C(=O)N1CCN(c2ncnc3c2C(C)CC3O)CC1)c1ccc(Cl)cc1 the IC50 [1] was greater than 300 nM, the IC50 [2] was greater than 300 nM and the IC50 [3] was 4.44 nM. The IC50 (curve of first compound, second compound 3.16 µM) was less than 0.949 nM, the IC50 (curve of first compound, second compound 10 µM) was less than 0.949 nM and the viability, T/C (second compound 0.1 µM, first compound 0.000949 µM) was 87.4%. For the same compound, the viability, T/C (second compound 0.1 µM, first compound 0.003 µM) was 80.3%, the viability, T/C (second compound 0.1 µM, first compound 0.00949 µM) was 73.1% and the viability, T/C (second compound 0.1 µM, first compound 0.03 µM) was 81%. The viability, T/C (second compound 0.1 µM, first compound 0.0949 µM) was 71.4%, the viability, T/C (second compound 0.1 µM, first compound 0.3 µM) was 77.8% and the viability, T/C (second compound 0.316 µM, first compound 0.000949 µM) was 66.1%. It also gave a viability, T/C (second compound 0.316 µM, first compound 0.003 µM) of 61%, a viability, T/C (second compound 0.316 µM, first compound 0.00949 µM) of 57.4% and a viability, T/C (second compound 0.316 µM, first compound 0.03 µM) of 54.8%. For the same compound, the viability, T/C (second compound 0.316 µM, first compound 0.0949 µM) was 59.5%, the viability, T/C (second compound 0.316 µM, first compound 0.3 µM) was 59.5% and the viability, T/C (second compound 1 µM, first compound 0.000949 µM) was 57.9%. For the same compound, the viability, T/C (second compound 1 µM, first compound 0.003 µM) was 51.8%, the viability, T/C (second compound 1 µM, first compound 0.00949 µM) was 46.4% and the viability, T/C (second compound 1 µM, first compound 0.03 µM) was 48.1%. It also gave a viability, T/C (second compound 1 µM, first compound 0.0949 µM) of 49.6%, a viability, T/C (second compound 1 µM, first compound 0.3 µM) of 48.3% and a viability, T/C (second compound 3.16 µM, first compound 0.000949 µM) of 35.9%. For the same compound, the viability, T/C (second compound 3.16 µM, first compound 0.003 µM) was 36.4%, the viability, T/C (second compound 3.16 µM, first compound 0.00949 µM) was 31.9% and the viability, T/C (second compound 3.16 µM, first compound 0.03 µM) was 32.7%. For the same compound, the viability, T/C (second compound 3.16 µM, first compound 0.0949 µM) was 29.5%, the viability, T/C (second compound 3.16 µM, first compound 0.3 µM) was 29.8% and the viability, T/C (second compound 10 µM, first compound 0.000949 µM) was 18.6%. It also gave a viability, T/C (second compound 10 µM, first compound 0.003 µM) of 19.3%, a viability, T/C (second compound 10 µM, first compound 0.00949 µM) of 19.9% and a viability, T/C (second compound 10 µM, first compound 0.03 µM) of 17.5%. The viability, T/C (second compound 10 µM, first compound 0.0949 µM) was 17.3% and the viability, T/C (second compound 10 µM, first compound 0.3 µM) was 17.6%.
